According to ChEMBL document CHEMBL5653633, “G1 cell cycle arrest and apoptosis are induced in NIH 3T3 cells by KN-93, an inhibitor of CaMK-II (the multifunctional Ca2+/CaM kinase)” (Cell Growth Differ, 1995):
Activity calls are given as the source filed them. The rule behind the calls is not given here.

How the values were obtained:
NIH3T3 [1] = assay: Cytotoxicity against PDGF-BB stimulated mouse NIH3T3 cells assessed as growth inhibition incubated for 72 hrs by MTT assay; type: functional, cell-based; conditions: NIH3T3, 72 h
NIH3T3 [2] = assay: Inhibition of CAMK-II in mouse NIH3T3 cells assessed as decrease in cell number by MTT assay; type: cell-based
NIH3T3 [3] = assay: Cytotoxicity against IGF-1 stimulated mouse NIH3T3 cells assessed as growth inhibition incubated for 72 hrs by MTT assay; type: functional, cell-based; conditions: NIH3T3, 72 h
[4] = (§1) Inhibition of CAMK-II in mouse NIH3T3 cells using autocamtide-2 as substrate […]; type: cell-based
NIH3T3 [5] = assay: Cytotoxicity against serum stimulated mouse NIH3T3 cells assessed as inhibition of cell growth incubated for 72 hrs by MTT assay; type: functional, cell-based; conditions: NIH3T3, 72 h
NIH3T3 [6] = assay: Induction of cell cycle arrest in mouse NIH3T3 cells assessed as accumulation of cells at G1 phase at 10 uM incubated for 2 to 3 day by propidium iodide staining based flow cytometry analysis (reference value: 54 %); type: toxicity; conditions: nih3t3, 10 µM, time 2-3 day
NIH3T3 [7] = assay: Inhibition of CAMK-II in mouse NIH3T3 cells assessed as morphological changes at 10 to 24 uM incubated for 1 day in presence of fetal bovine serum by phase contrast microscopy analysis; type: cell-based; conditions: dose 10-24 µM
NIH3T3 [8] = assay: Cytotoxicity against PDGF-BB stimulated mouse NIH3T3 cells assessed as growth inhibition at 5 to 25 uM incubated for 72 hrs by MTT assay; type: functional, cell-based; conditions: dose 5-25 µM
NIH3T3 [9] = assay: Inhibition of CAMK-II in mouse NIH3T3 cells assessed as decrease in cell count at 24 uM incubated for 2 to 3 days in presence of fetal bovine serum by phase contrast microscopy analysis; type: cell-based; conditions: time 2-3 day
NIH3T3 [10] = assay: Induction of cell cycle arrest in mouse NIH3T3 cells assessed as accumulation of cells at G1 phase at 24 uM incubated for 3 days by propidium iodide staining based flow cytometry analysis; type: toxicity; conditions: nih3t3, 72 h, time 3 day
NIH3T3 [11] = assay: Cytotoxicity against FGF stimulated mouse NIH3T3 cells assessed as growth inhibition incubated for 72 hrs by MTT assay; type: functional, cell-based; conditions: NIH3T3, 72 h
NIH3T3 [12] = assay: Cytotoxicity against EGF stimulated mouse NIH3T3 cells assessed as growth inhibition at 5 to 25 uM incubated for 72 hrs by MTT assay; type: functional, cell-based; conditions: dose 5-25 µM
NIH3T3 [13] = assay: Induction of apoptosis in mouse NIH3T3 cells assessed as decreased cell viability in presence of terminal transferase and Fl-dUTP by TUNEL staining based fluorescence microscopy analysis; type: toxicity; conditions: dose lower 10 µM, time lower 2 day, dose upper 24 µM, time upper 3 day
NIH3T3 [14] = assay: Induction of cell cycle arrest in mouse NIH3T3 cells assessed as decreased accumulation of cells at S phase at 10 uM incubated for 1 to 3 days by propidium iodide staining based flow cytometry analysis; type: toxicity; conditions: nih3t3, 10 µM, time 1-3 day
NIH3T3 [15] = assay: Induction of cell cycle arrest in mouse NIH3T3 cells assessed as accumulation of hypodiploid cells at 24 uM incubated for 3 days by propidium iodide staining based flow cytometry analysis; type: toxicity; conditions: nih3t3, 72 h, time 3 day
NIH3T3 [16] = assay: Cytotoxicity against FGF stimulated mouse NIH3T3 cells assessed as growth inhibition at 5 to 25 uM incubated for 72 hrs by MTT assay; type: functional, cell-based; conditions: dose 5-25 µM
NIH3T3 [17] = assay: Inhibition of CAMK-II in mouse NIH3T3 cells assessed as cell growth rate after compound rinsing at 4 to 16 uM incubated for 6 to 48 hrs by MTT assay; type: cell-based; conditions: dose 4-16 µM, time 6-48 hrs
NIH3T3 [18] = assay: Inhibition of CAMK-II in mouse NIH3T3 cells assessed as accumulation of granules in presence of fetal bovine serum by phase contrast microscopy analysis; type: cell-based
NIH3T3 [19] = assay: Induction of cell cycle arrest in mouse NIH3T3 cells assessed as decreased accumulation of cells at G2 phase at 10 uM incubated for 1 to 3 days by propidium iodide staining based flow cytometry analysis; type: toxicity; conditions: nih3t3, 10 µM, time 1-3 day
NIH3T3 [20] = assay: Cytotoxicity against EGF stimulated mouse NIH3T3 cells assessed as growth inhibition incubated for 72 hrs by MTT assay; type: functional, cell-based; conditions: NIH3T3, 72 h
NIH3T3 [21] = assay: Induction of cell cycle arrest in mouse NIH3T3 cells assessed as accumulation of cells at G2/M phase at 10 uM incubated for 44 hrs followed by compound washout for 22 hrs by propidium iodide staining based flow cytometry analysis; type: toxicity; conditions: nih3t3, 44 h
NIH3T3 [22] = assay: Induction of cell cycle arrest in mouse NIH3T3 cells assessed as accumulation of cells at G1 phase at 10 uM incubated for 1 day by propidium iodide staining based flow cytometry analysis (reference value: 54 %); type: toxicity; conditions: nih3t3, 24 h
NIH3T3 [23] = assay: Cytotoxicity against FGF stimulated mouse NIH3T3 cells assessed as decrease in cell number at 2 uM incubated for 72 hrs by MTT assay relative to control; type: functional; parameters: scale not given: the % may be the effect or the level left
NIH3T3 [24] = assay: Inhibition of CAMK-II in mouse NIH3T3 cells assessed as decrease in cell number at 16 to 24 uM incubated for 3 days by MTT assay; type: cell-based; conditions: dose 16-24 µM, time 3.0 day
[25] = Inhibition of CAMK-II in mouse NIH3T3 cells assessed as growth inhibition incubated for 2 to 3 days by phase contrast microscopy analysis; type: cell-based
NIH3T3 [26] = assay: Inhibition of CAMK-II in mouse NIH3T3 cells assessed as inhibition of cell growth at 4 to 8 uM incubated for 3 days by MTT assay; type: cell-based; conditions: dose 4-8 µM, time 3.0 day
NIH3T3 [27] = assay: Cytotoxicity against IGF-1 stimulated mouse NIH3T3 cells assessed as growth inhibition at 5 to 25 uM incubated for 72 hrs by MTT assay; type: functional, cell-based; conditions: dose 5-25 µM
NIH3T3 [28] = assay: Induction of cell cycle arrest in mouse NIH3T3 cells assessed as accumulation of cells at S phase at 10 uM incubated for 44 hrs followed by compound washout for 22 hrs by propidium iodide staining based flow cytometry analysis; type: toxicity; conditions: nih3t3, 44 h
NIH3T3 [29] = assay: Cytotoxicity against serum stimulated mouse NIH3T3 cells assessed as decrease in cell number at 2 uM incubated for 72 hrs by MTT assay relative to control; type: functional; parameters: scale not given: the % may be the effect or the level left
NIH3T3 [30] = assay: as §1; type: cell-based
NIH3T3 [31] = assay: Induction of cell cycle arrest in mouse NIH3T3 cells by propidium iodide staining based flow cytometry analysis; type: toxicity

In the case of `COc1ccc(S(=O)(=O)N(CCO)c2ccccc2CN(C)C/C=C/c2ccc(Cl)cc2)cc1`, the IC50 (NIH3T3 [1]) is reported as 6 µM, the inhibition (NIH3T3 [2]) is reported as “Active” and the IC50 (NIH3T3 [3]) is reported as 6 µM. It also gave an IC50 [4] of 12 µM, an IC50 (NIH3T3 [5]) of 12 µM and an Activity (NIH3T3 [6]) of 95%. For the same molecule, the inhibition (NIH3T3 [7]) was “Active”, the Activity (NIH3T3 [8]) was “Active” and the inhibition (NIH3T3 [9]) was “Active”. The Activity (NIH3T3 [10]) was “Toxic”, the IC50 (NIH3T3 [11]) was 6 µM and the Activity (NIH3T3 [12]) was “Active”. For the same molecule, the Activity (NIH3T3 [13]) was “Dose-Dependent Effect and Tde”, the Activity (NIH3T3 [14]) was “Toxic” and the Activity (NIH3T3 [15]) was “Toxic”. The Activity (NIH3T3 [16]) was “Active”, the inhibition (NIH3T3 [17]) was “inactive” and the inhibition (NIH3T3 [18]) was “Active”. The Activity (NIH3T3 [19]) was “Toxic”, the IC50 (NIH3T3 [20]) was 6 µM and the Activity (NIH3T3 [21]) was “Non-Toxic”. For the same molecule, the Activity (NIH3T3 [22]) was 79%, the Activity (NIH3T3 [23]) was 35% and the inhibition (NIH3T3 [24]) was “Active”. For the same molecule, the IC50 [25] was 1 µM, the inhibition (NIH3T3 [26]) was “Active” and the Activity (NIH3T3 [27]) was “Active”. The Activity (NIH3T3 [28]) was “Non-Toxic” and the Activity (NIH3T3 [29]) was 4%.
For `COc1ccc(S(=O)(=O)Nc2ccccc2CN(C)C/C=C/c2ccc(Cl)cc2)cc1`, the inhibition (NIH3T3 [2]) was “inactive”, the inhibition (NIH3T3 [30]) was “inactive” and the Activity (NIH3T3 [31]) was “Not Active”.
